Data from patent US12612360B2 (Sanofi, priority 2020, dated 2026).

Target: T1, ERα (Homo sapiens, UniProt P03372)
T1 construct: host or cells: MCF7
T1 sequence (P03372 1-595): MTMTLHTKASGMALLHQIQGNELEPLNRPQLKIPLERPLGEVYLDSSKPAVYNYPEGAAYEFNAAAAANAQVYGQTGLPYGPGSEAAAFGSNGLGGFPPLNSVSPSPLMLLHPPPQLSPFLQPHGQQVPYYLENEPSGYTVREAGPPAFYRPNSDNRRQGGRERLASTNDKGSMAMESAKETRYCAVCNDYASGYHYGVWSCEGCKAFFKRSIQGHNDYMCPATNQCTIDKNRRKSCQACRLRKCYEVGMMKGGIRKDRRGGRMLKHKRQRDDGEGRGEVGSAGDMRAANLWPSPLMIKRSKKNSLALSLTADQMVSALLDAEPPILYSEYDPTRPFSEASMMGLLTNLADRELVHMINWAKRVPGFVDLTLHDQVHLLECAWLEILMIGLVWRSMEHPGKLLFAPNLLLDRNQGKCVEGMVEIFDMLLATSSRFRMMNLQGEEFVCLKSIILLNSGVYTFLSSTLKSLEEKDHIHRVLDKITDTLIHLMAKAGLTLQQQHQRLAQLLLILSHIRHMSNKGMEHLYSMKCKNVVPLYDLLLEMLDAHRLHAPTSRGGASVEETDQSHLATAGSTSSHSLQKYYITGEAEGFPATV
Assay: Estrogen receptor degradation activity: breast cancer cell ERα in cell western assay (MCF7 cells)
Type: cell-based
Conditions: for % Degradation At 0.3 μM: 4 hours, relative to fulvestrant 0.1 μM positive control; for DC50: 4 hours post compound addition, concentration which degrades 50% of the estrogen receptor, read-out: Degradation IC50
Procedure, shortened: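 In-cell western readout: ERα immunofluorescence (Alexa 488) normalised to DNA signal (Syto-64) after formalin fixation. Compounds dosed for 4 h on MCF7 cells in stripped-serum, phenol-red-free medium over nine 1:5 steps, 0.3 to […] final; fulvestrant 0.1 μM control. IC50 in nM for 50% ERα degradation.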

Row | SMILES | % Degradation At 0.3 μM [%] | DC50 [pM]
1 | O=C(O)c1ccc2c(c1)CCCC(c1cc(C(F)(F)F)ccc1Cl)=C2c1ccc(C=C2CN(CCCF)C2)cc1 [Example 140, 8-(2-chloro-5-(trifluoromethyl)phenyl)-9-(4-((1-(3-fluoropropyl)azetidin-3-ylidene)methyl)phenyl)-6,7-dihydro-5H-benzo[7]annulene-3-carboxylic acid] | 92 | 500
2 | O=C(O)c1ccc2c(c1)CCCC(c1ccc(F)c(F)c1F)=C2c1ccc(C=C2CN(CCCF)C2)cc1 [Example 135, 9-(4-((1-(3-fluoropropyl)azetidin-3-ylidene)methyl)phenyl)-8-(2,3,4-trifluorophenyl)-6,7-dihydro-5H-benzo[7]annulene-3-carboxylic acid] | 96 | 500
3 | Cc1cc(F)ccc1C1=C(c2ccc(C=C3CN(CCCF)C3)c(F)c2C)c2ccc(C(=O)O)cc2CCC1 [Example 30, 8-(4-fluoro-2-methylphenyl)-9-(3-fluoro-4-((1-(3-fluoropropyl)azetidin-3-ylidene)methyl)-2-methylphenyl)-6,7-dihydro-5H-benzo[7]annulene-3-carboxylic acid] | 91 | 1800
4 | O=C(O)c1ccc2c(c1)CCCC([C@H]1C[C@@H]1c1ccccc1)=C2c1ccc(C=C2CN(CCCF)C2)cc1 (racemic) [Example 173, 9-(4-((1-(3-fluoropropyl)azetidin-3-ylidene)methyl)phenyl)-8-((trans)-2-phenylcyclopropyl)-6,7-dihydro-5H-benzo[7]annulene-3-carboxylic acid] | 90 | 700
5 | CC1(C)CCCC(C2=C(c3ncc(C=C4CN(CCCF)C4)cc3F)c3ccc(C(=O)O)cc3CCC2)C1 (racemic) [Example 186, 8-(3,3-Dimethylcyclohexyl)-9-(3-fluoro-5-((1-(3-fluoropropyl)azetidin-3-ylidene)methyl)pyridin-2-yl)-6,7-dihydro-5H-benzo[7]annulene-3-carboxylic acid, racemic mixture] | 92 | 1000
6 | Cc1c(Cl)cccc1C1=C(c2ccc(C=C3CN(CCCF)C3)cc2)c2ccc(C(=O)O)cc2CCC1 [Example 72, 8-(3-chloro-2-methylphenyl)-9-(4-((1-(3-fluoropropyl)azetidin-3-ylidene)methyl)phenyl)-6,7-dihydro-5H-benzo[7]annulene-3-carboxylic acid] | 97 | 300
7 | Cc1ccc(C2=C(c3ccc(C=C4CN(CCCF)C4)cc3)c3ccc(C(=O)O)cc3CCC2)c(Cl)c1 [Example 41, 8-(2-chloro-4-methylphenyl)-9-(4-((1-(3-fluoropropyl)azetidin-3-ylidene)methyl)phenyl)-6,7-dihydro-5H-benzo[7]annulene-3-carboxylic acid] | 92 | 200
8 | O=C(O)c1ccc2c(c1)CCCC(C13CCCC1C3)=C2c1ccc(C=C2CN(CCCF)C2)cc1 (centres unmarked) [Example 175, 8-(bicyclo[3.1.0]hexan-1-yl)-9-(4-((1-(3-fluoropropyl)azetidin-3-ylidene)methyl)phenyl)-6,7-dihydro-5H-benzo[7]annulene-3-carboxylic acid] | 87 | 300
9 | O=C([O-])c1ccc2c(c1)CCCC(c1ccc(F)cc1F)=C2c1ccc(C=C2CN(CCCF)C2)cc1F.[Na+] [Example 142, Sodium 8-(2,4-difluorophenyl)-9-(2-fluoro-4-((1-(3-fluoropropyl)azetidin-3-ylidene)methyl)phenyl)-6,7-dihydro-5H-benzo[7]annulene-3-carboxylate] | 96 | 300
10 | O=C(O)c1ccc2c(c1)CCCC(c1ccc(F)c(C(F)(F)F)c1)=C2c1ccc(C=C2CN(CCCF)C2)cc1 [Example 154, 8-(4-fluoro-3-(trifluoromethyl)phenyl)-9-(4-((1-(3-fluoropropyl)azetidin-3-ylidene)methyl)phenyl)-6,7-dihydro-5H-benzo[7]annulene-3-carboxylic acid] | 92 | 400
11 | O=C(O)c1ccc2c(c1)CCCC(c1ccc(Cl)cc1Cl)=C2c1ccc(C=C2CN(CCC(F)(F)F)C2)cc1 [Example 109, 8-(2,4-dichlorophenyl)-9-(4-((1-(3,3,3-trifluoropropyl)azetidin-3-ylidene)methyl)phenyl)-6,7-dihydro-5H-benzo[7]annulene-3-carboxylic acid] | 91 | 1400
12 | O=C(O)c1ccc2c(c1)CCCC(c1ccc(Cl)cc1F)=C2c1ccc(C=C2CN(CCCF)C2)cc1 [Example 58, 8-(4-chloro-2-fluorophenyl)-9-(4-((1-(3-fluoropropyl)azetidin-3-ylidene)methyl)phenyl)-6,7-dihydro-5H-benzo[7]annulene-3-carboxylic acid] | 99 | 200

The remaining lines, values ahead:

Row | % Degradation At 0.3 μM [%] | DC50 [pM] | SMILES
13 | 87 | 400 | CCOc1ccc(C2=C(c3ccc(C=C4CN(CCCF)C4)cc3)c3ccc(C(=O)O)cc3CCC2)cc1C(F)(F)F [Example 149, 8-(4-ethoxy-3-(trifluoromethyl)phenyl)-9-(4-((1-(3-fluoropropyl)azetidin-3-ylidene)methyl)phenyl)-6,7-dihydro-5H-benzo[7]annulene-3-carboxylic acid]
14 | 94 | 6000 | Cc1cc(F)ccc1C1=C(c2ccc(C=C3CN(CCCF)C3)c(C#N)c2)c2ccc(C(=O)O)cc2CCC1 [Example 46, 9-(3-cyano-4-((1-(3-fluoropropyl)azetidin-3-ylidene)methyl)phenyl)-8-(4-fluoro-2-methylphenyl)-6,7-dihydro-5H-benzo[7]annulene-3-carboxylic acid]
15 | 89 | 1100 | O=C(O)c1ccc2c(c1)CCCC(Cc1ccccc1)=C2c1ccc(C=C2CN(CCCF)C2)cc1 [Example 167, 8-benzyl-9-(4-((1-(3-fluoropropyl)azetidin-3-ylidene)methyl)phenyl)-6,7-dihydro-acid]
16 | 90 | 1000 | Cc1c(C2=C(c3ccc(C=C4CN(CCC(F)(F)F)C4)cc3)c3ccc(C(=O)O)cc3CCC2)ccc(Cl)c1F [Example 111, 8-(4-chloro-3-fluoro-2-methylphenyl)-9-(4-((1-(3,3,3-trifluoropropyl)azetidin-3-ylidene)methyl)phenyl)-6,7-dihydro-5H-benzo[7]annulene-3-carboxylic acid]
17 | 91 | 300 | Cc1cc(F)ccc1C1=C(c2ccc(C=C3CN(CCCF)C3)cc2F)c2ccc(C(=O)O)cc2CCC1 [Example 11, 8-(4-fluoro-2-methylphenyl)-9-(2-fluoro-4-((1-(3-fluoropropyl)azetidin-3-ylidene)methyl)phenyl)-6,7-dihydro-5H-benzo[7]annulene-3-carboxylic acid]
18 | 93 | 600 | O=C(O)c1ccc2c(c1)CCCC(c1cccc(F)c1Cl)=C2c1ccc(C=C2CN(CCCF)C2)cc1 [Example 78, 8-(2-chloro-3-fluorophenyl)-9-(4-((1-(3-fluoropropyl)azetidin-3-ylidene)methyl)phenyl)-6,7-dihydro-5H-benzo[7]annulene-3-carboxylic acid]
19 | 94 | 100 | Cl.O=C(O)c1ccc2c(c1)CCCC(c1ccc(Cl)cc1Cl)=C2c1cc(F)c(C=C2CN(CCCF)C2)c(F)c1 [Example 105, 8-(2,4-dichlorophenyl)-9-(3,5-difluoro-4-((1-(3-fluoropropyl)azetidin-3-ylidene)methyl)phenyl)-6,7-dihydro-5H-benzo[7]annulene-3-carboxylic acid]
20 | 87 | 600 | Cc1cc(C=C2CN(CCCF)C2)c(F)cc1C1=C(c2ccc(F)cc2F)CCCc2cc(C(=O)O)ccc21.Cl [Example 15, 8-(2,4-difluorophenyl)-9-(5-fluoro-4-((1-(3-fluoropropyl)azetidin-3-ylidene)methyl)-2-methylphenyl)-6,7-dihydro-5H-benzo[7]annulene-3-carboxylic acid hydrochloride]
21 | 89 | 400 | Cc1cc(F)ccc1C1=C(c2cc(F)c(C=C3CN(CCCF)C3)c(F)c2)c2ccc(C(=O)O)cc2CCC1 [Example 36, 9-(3,5-difluoro-4-((1-(3-fluoropropyl)azetidin-3-ylidene)methyl)phenyl)-8-(4-fluoro-2-methylphenyl)-6,7-dihydro-5H-benzo[7]annulene-3-carboxylic acid]
22 | 89 | 400 | CC1(C)CCCC(C2=C(c3ccc(C=C4CN(CCCF)C4)cc3)c3ccc(C(=O)O)cc3CCC2)C1 (single isomer, unassigned) [Example 172, 8-(3,3-dimethylcyclohexyl)-9-(4-((1-(3-fluoropropyl)azetidin-3-ylidene)methyl)phenyl)-6,7-dihydro-5H-benzo[7]annulene-3-carboxylic acid]
